Results on 6 compounds are retold here after US10745414B2, “Crystal salt form of 2,2-dimethyl-6-((4-((3,4,5-trimethoxyphenyl)amino)-1,3,5-triazine-2-yl)amino)-2H-pyrido[3,2-b][1,4]oxazine-3(4H)-one for human use” (LIMITED “MOLECULAR TECHNOLOGIES”, priority 2016, dated 2020).

For orientation: AUC(0-inf) means the area under the concentration-time curve extrapolated to infinity. A low value points to less exposure. Broadly, the Cmax is the maximum level reached in the sampled fluid or tissue. The Tmax is the time from dosing to the highest level. As usually defined, the half-life is how long it takes for the measured level to halve. Read a high half-life as slow decline. A word on the pKa: it is the pH at which an ionisable group is half protonated. The solubility is the concentration that dissolves in the medium under given conditions.

Structures are written as SMILES.

The subject of one data set is mature human osteoclasts. The data set is described as follows: osteoclast-mediated resorption of mineralized matrix. It counts as cell-based. As to the method:
The study was carried out following the method below: CD15+ monocytes (osteoclast precursor cells) were cultivated for 3 days in a proliferation medium (Igla α-modified minimum essential medium/fetal calf serum (aMEM/FCS), 10% with 25 ng/ml of macrophage colony-stimulating factor (M-CSF)). During this stage M-CSF promoted proliferation and expression of a receptor activator of nuclear factor KB (RANK, cappa-B, type I membrane protein). The proliferation medium was removed and cells were differentiated in a differentiation medium (aMEM/FCS-10% with 100 ng/ml of RANKL and 25 ng/ml of M-CSF). When mature osteoclasts were detected in the culture (day 4 of the study), the cells were collected and re-inoculated into a 96-well plate coated with a synthetic mineralized matrix. Cultivation continued for 48 hours (at presence of the studied compounds) to evaluate osteoclast resorption. Then number of mature osteoclasts and the resorption degree were evaluated. An effect of 4-methylbenzenesulfonic acid and Compound 1 salt concentration on concentration and resorption degree of mature osteoclasts was evaluated in comparison with control samples ([…] control, 0.3% DMSO solvent) and reference inhibitors, i.e., saracatinib and bosutinib (see FIG. 18).

Data set [1] can be described thus: pharmacokinetics in blood plasma after oral administration in Wistar rats. Particulars: Wistar, rat, in vivo, po, 30 mg/kg. The procedure: At the first stage, pharmacokinetics of the Compound 1 free base was studied after oral administration in Wistar rats at dosage of 30 mg/kg.
Pharmacokinetics of several Compound 1 salt forms was studied after oral administration in Wistar rats at a dose of 37 mg/kg (30 mg/kg equivalent to a free base).

Data set [2] addresses human recombinant tyrosine c-Src kinase (Homo sapiens, UniProt P12931). Kind of data set: human kinase enzymatic activity in vitro (33P-ATP, peptide substrate). It counts as biochemical. Particulars: human c-Src kinase. The procedure: The Compound 1 effect on the human recombinant tyrosine c-Src kinase was measured as follows: a peptide substrate was dissolved in a reaction buffer ad 0.2 mg/ml concentration. A solution of recombinant c-Src kinase was added to 2 nM concentration and the studied compound to the required concentration (within the range of 1 nM to 10 μM) was added. A solution of ^33P-ATP was added to 10 μM concentration (final specific activity of the solution is 0.01 μCi). After 120 minutes of incubation, the reaction mixture was applied on ion-exchange paper, which was rinsed with a plenty of phosphoric acid. A reaction extent was determined based on radioactivity of the reaction products.

Data set [3] in a line: pKa of protonated pyridine nitrogen. It counts as physicochemical. As to conditions: protonated nitrogen atom of pyridine. The source says: To obtain a form having optimal biological and physical properties, various salt forms of the Compound 1 was synthesized. A primary goal of the salt form optimization was to obtain a Compound 1 salt form having the following properties: crystallinity, composition stability, therapeutic efficacy, safety, ease of production process scalability, using a pharmacologically acceptable counterion (preferably anion), and using low toxicity organic solvents. The salt forms of Compound 1 were obtained with organic solutions of high polarity and low toxicity (Class 3). The counterions were used based on pharmacological acceptance and high acid strength (pKa not exceeding 3.25). The requirement for the high acid strength is conditioned by the fact that a protonated nitrogen atom of pyridine of the Compound 1 is a weak base having pKa 4.

Data set [4] in a line: solubility of the primary base in selected organic solvents. As to conditions: organic solvent or mixture, thermodynamic from solid. It counts as physicochemical. The procedure:
At the first stage solubility of the primary base in the selected organic solvents was studied. Maximum volume of a solvent for this study was selected as 10 ml per 100 mg of the base taking into consideration the subsequent process scaling.

The conditions of data set [5]: further clinical trials, daily exposure of a therapeutically effective dose; cited from earlier work.
Data set [6] deals with Sprague-Dawley rat models of osteoarthritis induced by intra-articular introduction of sodium iodoacetate. Kind of data set: mechanical allodynia test with von Frey filaments in osteoarthritis induced by sodium iodoacetate. It counts as in vivo. As to the method: The intra-articular introduction of aerobic glycolysis inhibitor (sodium iodoacetate) results in death of chondrocytes and acute inflammatory reaction in a synovial cavity. In absence of treatment, at day 10 from the pathology induction an onset of chronic pain is observed due to cartilage destruction and development of chronic inflammation in particular cases [J Musculoskel Neuron Interact 2001; 1(4):363-376]. Extent of osteoarthritis development in rats was evaluated by comparison of extremity pain sensitivity threshold after the introduction of sodium iodoacetate versus background measurements taken before the pathology induction. The threshold of the pain sensitivity was evaluated by mechanical allodynia test using von Frey filaments (see Table 8).
For the purposes of the study, rat males weighing 150 to 200 g were selected. All the animals underwent acclimatization for 14 days. The animals were housed in a polycarbonate cages of 3H type manufactured by Charles River laboratories Inc according to COST R 53434-2009. 12-hours lighting regimen was maintained. The animals had access to food and water ad libitum. The pathology was induced by introduction of 50 μl solution containing 2 mg of sodium iodoacetate into a synovial cavity of the animal knee joints. Tactile allodynia induced by a mechanical irritation was evaluated using von Frey filaments weighing 0.06 to 23.96 g. The test was repeated five times for each filament at intervals of 1 to 2 s. The sensitivity threshold was considered as a minimum reaction threshold provoking paw withdrawal in one of five repeats.

The nature of data set [7]: pharmacokinetics in blood plasma after oral administration in Wistar rats. As to conditions: rat, in vivo, 21 mg/kg.
Data set [8] deals with chondrocytes from knee joint cartilage of young rats. The data set is described as follows: IL-1β-induced hypertrophic changes in chondrocytes (aggrecan expression). Particulars: treatment for 3 days. It counts as cell-based, rats (Sprague Dawley). The procedure: The study was carried out following the method below: chondrocytes were isolated from a knee joint cartilage of young rats (aged 3 weeks, Sprague Dawley line). The isolated chondrocytes in a cultural medium (Dulbecco's modified Igla minimum essential medium/fetal calf serum (DMEM/FCS), 10%, 4-(2-hydroxyethyl)-1-piperazine ethanesulfonic acid (HEPES), 25 mM) was stored frozen at −80° C. The obtained chondrocytes were unfrozen a day before the experiment, inoculated into 12-well plates and cultured as a monolayer during 24 hours. After 24 hours of incubation IL-1β-induced activation of chondrocytes and treatment with the studied compounds was started and continued for 3 days.

human recombinant tyrosine c-Src kinase, sequence (P12931 whole entry): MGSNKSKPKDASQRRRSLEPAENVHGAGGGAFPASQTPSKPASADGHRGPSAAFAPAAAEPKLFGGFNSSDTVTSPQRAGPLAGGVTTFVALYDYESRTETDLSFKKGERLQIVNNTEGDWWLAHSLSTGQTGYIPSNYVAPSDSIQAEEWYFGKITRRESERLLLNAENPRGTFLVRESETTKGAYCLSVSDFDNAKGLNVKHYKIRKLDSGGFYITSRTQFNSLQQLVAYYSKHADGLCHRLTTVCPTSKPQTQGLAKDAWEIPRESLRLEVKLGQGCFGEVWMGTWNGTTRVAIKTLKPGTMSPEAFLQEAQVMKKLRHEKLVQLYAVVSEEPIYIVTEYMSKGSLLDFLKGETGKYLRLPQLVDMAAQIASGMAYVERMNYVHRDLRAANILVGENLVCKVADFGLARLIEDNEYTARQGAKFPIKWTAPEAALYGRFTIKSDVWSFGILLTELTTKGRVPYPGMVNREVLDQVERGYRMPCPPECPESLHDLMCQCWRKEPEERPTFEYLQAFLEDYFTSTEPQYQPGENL

Turning to `COc1cc(Nc2ncnc(Nc3ccc4c(n3)NC(=O)C(C)(C)O4)n2)cc(OC)c1OC.Cc1ccc(S(=O)(=O)O)cc1.O` [salt monohydrate of 4-methylbenzenesulfonic acid and 2,2-dimethyl-6-((4-((3,4,5-trimethoxyphenyl)amino)-1,3,5-triazine-2-yl)amino)-2H-pyrido[3,2-1,4]oxazine-3(4H)-one Base (Polymorphic Modification B)], the “effect on osteoclast-mediated resorption of the mineralized matrix” value in the data set with mature human osteoclasts (concentrations from 1.0 μM) is given as “statistically significant dose-dependent inhibitory effect”.

As to `COc1cc(Nc2ncnc(Nc3ccc4c(n3)NC(=O)C(C)(C)O4)n2)cc(OC)c1OC` [Compound 1, 2,2-dimethyl-6-((4-((3,4,5-trimethoxyphenyl)amino)-1,3,5-triazine-2-yl)amino)-2H-pyrido[3,2-b][1,4]oxazine-3(4H)-one], the “effect on osteoclast-mediated resorption of the mineralized matrix” value in the data set with mature human osteoclasts (48 hours cultivation) is “dose-dependent inhibitory effect”. Further, in the data set on mature human osteoclasts (studies of Compound 1 biological activity), the effective concentration result is “about 1 μmol/l”. For the same compound, in [1], the AUC0-t was 55 ng·h/mL, the AUC(0-inf) came to 73 ng·h/mL, the Cmax was determined as 4.12 ng/mL and the time to peak (Tmax) worked out at 4 h. Further, in [1], the “Vz(/F)” value is 6,982.6 l/kg, the “average daily concentration of the substance” value is 4.8 nmol/L, the half-life was 11.8 h and the “maximum concentration of the substance in plasma” value was 9.1 nmol/L. Further, the “maximum plasma concentration relative to minimum effective concentration” value in data set [1] is recorded as 100 times lower. In addition, in data set [2], the half-maximal inhibitory concentration entry is “within a nanomolar range”. For the same compound, in data set [3], the pKa worked out at 4. The solubility in data set [4] (1,4-Dioxane, 106 mg base in 7 ml, 100 °C (code S-1-4-D)) was more than 10000 µg/mL. For the same compound, the solubility in [4] (Acetone, 97 mg base in 10 ml, 56 °C (code S-1-5-A1)) is less than 10000 µg/mL. The solubility in [4] (Ethanol, 98 mg base in 10 ml, 78 °C (code S-1-2-C2)) is less than 10000 µg/mL. In addition, in [4] (THF, 103 mg base in 10 ml, 66 °C (code S-1-3-T)), the solubility is less than 10000 µg/mL. The solubility in [4] (n-Butanol, 101 mg base in 10 ml, 117 °C (code S-1-1-B)) is less than 10000 µg/mL.

As to `CN1CCN(CCOc2cc(OC3CCOCC3)c3c(Nc4c(Cl)ccc5c4OCO5)ncnc3c2)CC1` [saracatinib], the toxicity result in data set [5] is “high toxicity”.

On to `COc1ccc2cc([C@H](C)C(=O)O)ccc2c1` [Naproxen, reference compound], for which the “Reaction threshold value, % of control” value in data set [6] (50 mg/kg intragastric, days 14, 21, 28, day 14) is given as 82 % of control; in data set [6] (50 mg/kg intragastric, days 14, 21, 28, day 21), 102 % of control; in data set [6] (50 mg/kg intragastric, days 14, 21, 28, day 28), 96 % of control.

With `COc1cc(Nc2ncnc(Nc3ccc4c(n3)NC(=O)C(C)(C)O4)n2)cc(OC)c1OC.Cc1ccc(S(=O)(=O)O)cc1.O` [salt monohydrate of 4-methylbenzenesulfonic acid and 2,2-dimethyl-6-((4-((3,4,5-trimethoxyphenyl)amino)-1,3,5-triazine-2-yl)amino)-2H-pyrido[3,2-b][1,4]oxazine-3(4H)-one Base (Polymorphic Modification A)], in data set [7], the AUC0-t is 2,339 ng · h/ml, the “AUC0-∞” value is on record as 2,418 ng · h/ml, the T1/2 is on record as 5.0 h and the Tmax was determined as 1.5 h. Also, the “effect on IL-1β-induced hypertrophic changes in chondrocytes (increase in aggrecan expression)” value in [8] is on record as “statistically significant positive effect”.

For `O=P(O)(O)C(O)(Cn1ccnc1)P(=O)(O)O` [Zoledronic acid, reference compound], the “Reaction threshold value, % of control” value is listed as 98 % of control in [6] (0.1 mg/kg subcutaneously, days 0, 3, 6, 9, 12, 15, 18, 21, 24, 27, day 14); 108 % of control in data set [6] (0.1 mg/kg subcutaneously, days 0, 3, 6, 9, 12, 15, 18, 21, 24, 27, day 21); 118 % of control in data set [6] (0.1 mg/kg subcutaneously, days 0, 3, 6, 9, 12, 15, 18, 21, 24, 27, day 28).
